In patent EP0942911B1, “BENZOPYRANOPYRROLE AND BENZOPYRANOPYRIDINE ALPHA-1 ADRENERGIC COMPOUNDS” (Abbott Laboratories, priority 1996, dated 1998):
Counter-ions that a name gives are not always drawn.

Tests used:
Assay in all cases: biochemical
[1] = target: T1, α-1a adrenoreceptor (Bos taurus, UniProt P18130); format: binding, bovine; settings: [3H]-prazosin radioligand; cloned receptor in LTK cell membranes; read-out: Radioligand Binding (Ki, nM) 1a (Bovine)
T1 sequence (P18130 1-466): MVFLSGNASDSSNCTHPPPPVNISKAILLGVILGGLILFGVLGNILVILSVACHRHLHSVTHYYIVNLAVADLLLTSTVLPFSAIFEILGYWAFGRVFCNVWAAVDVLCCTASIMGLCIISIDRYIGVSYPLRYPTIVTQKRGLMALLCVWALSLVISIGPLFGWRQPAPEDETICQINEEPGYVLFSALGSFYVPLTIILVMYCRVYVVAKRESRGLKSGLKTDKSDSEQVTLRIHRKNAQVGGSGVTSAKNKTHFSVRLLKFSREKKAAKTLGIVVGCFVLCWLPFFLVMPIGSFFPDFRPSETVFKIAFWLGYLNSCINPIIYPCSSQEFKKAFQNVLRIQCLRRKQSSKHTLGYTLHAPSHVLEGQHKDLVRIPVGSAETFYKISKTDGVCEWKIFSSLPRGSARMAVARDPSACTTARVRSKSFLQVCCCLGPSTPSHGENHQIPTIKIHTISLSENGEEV
Summary of the method: (§1)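 Radioactivity counted by liquid scintillation after radioligand binding to membranes. Receptors: cloned α-1a, α-1b, α-1d stably expressed in LTK mouse fibroblasts (G418 selection, SV40 early promoter); rat submaxillary gland membranes for pharmacologically defined α-1A.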

[2] = target: T2, α-1b adrenoreceptor (Mesocricetus auratus, UniProt P18841); format: binding, hamster; settings: [3H]-prazosin radioligand; cloned receptor in LTK cell membranes; read-out: Radioligand Binding (Ki, nM) 1b (Hamster)
T2 sequence (P18841 1-515): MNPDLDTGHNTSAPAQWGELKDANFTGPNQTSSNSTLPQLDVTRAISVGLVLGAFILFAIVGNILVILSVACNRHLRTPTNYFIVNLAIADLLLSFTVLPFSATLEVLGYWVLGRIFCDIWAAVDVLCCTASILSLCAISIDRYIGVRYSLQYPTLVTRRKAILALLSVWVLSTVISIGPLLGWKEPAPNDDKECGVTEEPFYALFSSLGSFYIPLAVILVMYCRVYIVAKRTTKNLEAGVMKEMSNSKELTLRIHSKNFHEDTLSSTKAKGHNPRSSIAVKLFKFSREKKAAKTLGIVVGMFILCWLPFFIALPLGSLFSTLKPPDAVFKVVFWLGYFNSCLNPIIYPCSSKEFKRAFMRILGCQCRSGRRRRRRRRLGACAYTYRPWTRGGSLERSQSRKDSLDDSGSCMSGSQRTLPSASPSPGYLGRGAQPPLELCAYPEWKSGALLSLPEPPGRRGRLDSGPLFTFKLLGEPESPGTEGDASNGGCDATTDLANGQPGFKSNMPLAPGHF
Summary of the method: as §1

[3] = target: T3, α-1A adrenoreceptor (rat submaxillary gland) (Rattus norvegicus, UniProt P43140); format: binding; settings: [3H]-prazosin radioligand; rat submaxillary gland membranes; read-out: Radioligand Binding (Ki, nM) 1A (Rat)
T3 sequence (P43140 1-466): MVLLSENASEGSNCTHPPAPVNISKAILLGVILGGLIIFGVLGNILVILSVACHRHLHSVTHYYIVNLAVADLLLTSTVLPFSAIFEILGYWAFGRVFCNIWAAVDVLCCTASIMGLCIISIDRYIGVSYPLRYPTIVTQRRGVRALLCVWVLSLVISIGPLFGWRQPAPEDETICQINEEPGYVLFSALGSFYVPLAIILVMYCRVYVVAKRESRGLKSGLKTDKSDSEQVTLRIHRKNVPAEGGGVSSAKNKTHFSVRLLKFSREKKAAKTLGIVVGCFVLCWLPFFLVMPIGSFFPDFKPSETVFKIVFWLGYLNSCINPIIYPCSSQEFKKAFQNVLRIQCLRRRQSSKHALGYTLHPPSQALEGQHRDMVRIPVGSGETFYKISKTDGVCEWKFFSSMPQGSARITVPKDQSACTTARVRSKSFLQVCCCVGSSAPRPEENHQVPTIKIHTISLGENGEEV
Summary of the method: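 Membranes were prepared from rat submaxillary glands as the α-1A adrenoreceptor source. Competition binding followed Greengrass and Bremner, with bound radioligand measured by scintillation counting.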

Structure (SMILES)	Ki [1] [nM]	Ki [2] [nM]	Ki [3] [nM]
COc1cccc2c1[C@@H]1CN(CCCCn3c(=O)[nH]c4c(sc5ncc(Cl)nc54)c3=O)C[C@H]1CO2 [Example 13, 3-[4-((3aS,9bR)-trans-9-Methoxy-1,2,3,3a,4,9b-hexahydro-[1]-benzopyrano[3,4-c]pyrrol-2-yl)butyl]-8-chloro-pyrazino[2',3':4,5]thieno[3,2-d]pyrimidine-2,4(1H,3H)-dione hydrochloride]	0.041	2.49	0.1
COc1cccc2c1[C@@H]1CN(CCCCn3c(=O)[nH]c4c(sc5c(OC)ccnc54)c3=O)C[C@H]1CO2 [Example 17, 3-[4-((3aS,9bR)-trans-9-Methoxy-1,2,3,3a,4,9b-hexahydro-[1]-benzopyrano[3,4-c]pyrrol-2-yl)butyl]-6-methoxy-pyrido[2',3':4,5]thieno[3,2-d]pyrimidine-2,4(1H,3H)-dione dihydrochloride]	0.068	1.25	0.175
COc1cccc2c1[C@@H]1CN(CCCCn3c(=O)[nH]c4c(sc5c(OC)ccnc54)c3=O)C[C@@H]1CO2 [Example 18, 3-[4-((3aR,9bR)-cis-9-Methoxy-1,2,3,3a,4,9b-hexahydro[1]-benzopyrano[3,4-c]pyrrol-2-yl)butyl]-6-methoxy-pyrido[2',3':4,5]thieno[3,2-d]pyrimidine-2,4(1H,3H)-dione dihydrochloride]	0.069	5.06	0.284
COc1cccc2c1[C@@H]1CN(CCCCn3c(=O)[nH]c4c(sc5ccc(Cl)nc54)c3=O)C[C@H]1CO2 [Example 25, 3-[4-((3aS,9bR)-trans-9-Methoxy-1,2,3,3a,4,9b-hexahydro-[1]-benzopyrano[3,4-c]pyrrol-2-yl)butyl]-8-chloro-pyrido[2',3':4,5]thieno[3,2-d]pyrimidine-2,4(1H,3H)-dione dihydrochloride]	0.03	0.591	0.061
COc1ccc2sc3c(=O)n(CCCCN4C[C@H]5COc6cccc(OC)c6[C@@H]5C4)c(=O)[nH]c3c2n1 [Example 26, 3-[4-((3aS,9bR)-trans-9-Methoxy-1,2,3,3a,4,9b-hexahydro-[1]-benzopyrano[3,4-c]pyrrol-2-yl)butyl]-8-methoxy-pyrido[2',3':4,5]thieno[3,2-d]pyrimidine-2,4(1H,3H)-dione hydrochloride]	0.022	0.376	0.09
COc1cccc2c1[C@@H]1CN(CCCCn3c(=O)[nH]c4c(sc5ccncc54)c3=O)C[C@@H]1CO2 [Example 28, 3-[4-((3aR,9bR)-cis-9-Methoxy-1,2,3,3a,4,9b-hexahydro-[1]-benzopyrano[3,4-c]pyrrol-2-yl)butyl]-pyrido[3',4':4,5]thieno[3,2-d]pyrimidine-2,4(1H,3H)-dione dihydrochloride]	0.092	3.69	0.273
COc1cccc2c1[C@@H]1CN(CCCCn3c(=O)[nH]c4c(sc5cnccc54)c3=O)C[C@@H]1CO2 [Example 29, 3-[4-((3aR,9bR)-cis-9-Methoxy-1,2,3,3a,4,9b-hexahydro-[1]-benzopyrano[3,4-c]pyrrol-2-yl)butyl]-pyrido[4',3':4,5]thieno[3,2-d]pyrimidine-2,4(1H,3H)-dione dihydrochloride]	0.095	3.69	0.252
COc1ccc2sc3c(=O)n(CCCCN4C[C@@H]5COc6cccc(OC)c6[C@@H]5C4)c(=O)[nH]c3c2n1 [Example 30, 3-[4-((3aR,9bR)-cis-9-Methoxy-1,2,3,3a,4,9b-hexahydro-[1]-benzopyrano[3,4-c]pyrrol-2-yl)butyl]-8-methoxy-pyrido[2',3':4,5]thieno[3,2-d]pyrimidine-2,4(1H,3H)-dione hydrochloride]	0.066	2.67	0.264
COc1cnc2sc3c(=O)n(CCCCN4C[C@@H]5COc6cccc(OC)c6[C@@H]5C4)c(=O)[nH]c3c2n1 [Example 31, 3-[4-((3aR,9bR)-cis-9-Methoxy-1,2,3,3a,4,9b-hexahydro-[1]-benzopyrano[3,4-c]pyrrol-2-yl)butyl]-8-methoxy-pyrazino[2',3':4,5]thieno[3,2-d]pyrimidine-2,4(1H,3H)-dione hydrochloride]	0.06	4.79	0.224
COc1cccc2c1[C@@H]1CN(CCCCn3c(=O)[nH]c4c(sc5ncccc54)c3=O)C[C@@H]1CO2 [Example 34, 3-[4-((3aR,9bR)-cis-9-Methoxy-1,2,3,3a,4,9b-hexahydro-[1]-benzopyrano[3,4-c]pyrrol-2-yl)butyl]-pyrido[3',2':4,5]thieno[3,2-d]pyrimidine-2,4(1H,3H)-dione hydrochloride]	0.079	3.37	0.474
COc1cccc2c1[C@@H]1CN(CCCCn3c(=O)[nH]c4c(sc5nc(C)ccc54)c3=O)C[C@@H]1CO2 [Example 35, 3-[4-((3aR,9bR)-cis-9-Methoxy-1,2,3,3a,4,9b-hexahydro-[1]-benzopyrano[3,4-c]pyrrol-2-yl)butyl]-7-methyl-pyrido[3',2':4,5]thieno[3,2-d]pyrimidine-2,4(1H,3H)-dione hydrochloride]	0.057	5.12	0.312
COc1cccc2c1[C@@H]1CN(CCCCn3c(=O)[nH]c4c(sc5nccc(OC)c54)c3=O)C[C@@H]1CO2 [Example 36, 3-[4-((3aR,9bR)-cis-9-Methoxy-1,2,3,3a,4,9b-hexahydro-[1]-benzopyrano[3,4-c]pyrrol-2-yl)butyl]-9-methoxy-pyrido[3',2':4,5]thieno[3,2-d]pyrimidine-2,4(1H,3H)-dione hydrochloride]	0.124	2.85	0.539
COc1cccc2c1[C@@H]1CN(CCCCn3c(=O)[nH]c4c(sc5ccc(Cl)nc54)c3=O)C[C@@H]1CO2 [Example 37, 3-[4-((3aR,9bR)-cis-9-Methoxy-1,2,3,3a,4,9b-hexahydro-[1]-benzopyrano[3,4-c]pyrrol-2-yl)butyl]-8-chloro-pyrido[2',3':4,5]thieno[3,2-d]pyrimidine-2,4(1H,3H)-dione hydrochloride]	0.069	3.34	0.264
COc1cccc2c1[C@@H]1CN(CCCCn3c(=O)[nH]c4c(sc5cc(Cl)cnc54)c3=O)C[C@@H]1CO2 [Example 38, 3-[4-((3aR,9bR)-cis-9-Methoxy-1,2,3,3a,4,9b-hexahydro-[1]-benzopyrano[3,4-c]pyrrol-2-yl)butyl]-7-chloro-pyrido[2',3':4,5]thieno[3,2-d]pyrimidine-2,4(1H,3H)-dione hydrochloride]	0.057	5.63	0.376
COc1cccc2c1[C@@H]1CN(CCCCn3c(=O)[nH]c4c(sc5ncc(-c6ccccc6)nc54)c3=O)C[C@@H]1CO2 [Example 39, 3-[4-((3aR,9bR)-cis-9-Methoxy-1,2,3,3a,4,9b-hexahydro-[1]-benzopyrano[3,4-c]pyrrol-2-yl)butyl]-8-phenyl-pyrazino[2',3':4,5]thieno[3,2-d]pyrimidine-2,4(1H,3H)-dione hydrochloride]	0.226	31.9	0.343
COc1cccc2c1[C@@H]1CN(CCCCn3c(=O)[nH]c4c(sc5nc(-c6ccccc6)cnc54)c3=O)C[C@@H]1CO2 [Example 40, 3-[4-((3aR,9bR)-cis-9-Methoxy-1,2,3,3a,4,9b-hexahydro-[1]-benzopyrano[3,4-c]pyrrol-2-yl)butyl]-7-phenyl-pyrazino[2',3':4,5]thieno[3,2-d]pyrimidine-2,4(1H,3H)-dione hydrochloride]	3.02	33.8	22.8
